According to patent publication US11318079B2, “Polyhydroxylated (1-phenyl-2-phenyl) ethylene derivatives as an anti-ageing and photoprotective agent” (L'OREAL, priority 2015, dated 2022):
pEC50: −log10 of the molar value. Where two headings read alike, the source gives them in different places.

Legend:
[1] = tested on: keratinocytes of the HaCaT line; assay: Production of reactive oxygen species (ROS) induced by UVA in HaCaT keratinocytes (DHR123 or DCFH-DA probe); type: cell-based; conditions: for pEC50: Homo sapiens, light or radiation study, 24 h incubation, UVA exposure, concentration allowing 50% photoprotection (500 μM vitamin C = 100%); for ROS production decrease: UVA-induced ROS
Method: The decrease of the production of reactive oxygen species in keratinocytes of the HaCaT line is evaluated by detection, using the Dihydrorhodamine 123 (DHR123) probe or using Dichloro-dihydro-fluorescein diacetate (DCFH-DA) probe, the ROS production is induced by exposition to UVA after 24 h of incubation in the presence of the compounds to be tested. The DHR123 and DCFH-DA probes are indicators of the presence of reactive oxygen species (ROS). HaCaT keratinocytes in monolayer culture are placed in the presence of a solution of a compound to be tested at various concentrations (0.4-200 μM) in the medium. After 24 h of incubation, the cells are exposed to UVA, then incubated with the DHR123 probe or DCFH-DA probe for 1 h. The fluorescence of the probe is then measured. A viability test is carried out in parallel in order to discard the cytotoxic compounds. In parallel, the keratinocytes are incubated with vitamin C acting as a positive control and a standard: an incubation with 500 μM of vitamin C corresponds to 100% photoprotection. The dose-effect curves of the fluorescence detected as a function of the concentration of compounds (to be tested) present in the medium make it possible to calculate the effective dose EC50 which corresponds to the concentration of compound (to be tested) that allows 50% photoprotection of the keratinocytes.

[2] = tested on: AMPK pathway (pACC, phosphorylated Acetyl-CoA Carboxylase) in NHEK cells; assay: Evaluation on AMPK pathway in NHEK cells by pACC immunolabeling; type: cell-based, Human; conditions: for % control (labeling % of the pACC compared to the control brought back to 100%) / global increase of the pACC labelling: NHEK cells, Compound 4 at 10 μM; for % control (labeling % of the pACC compared to the control brought back to 100%): 48 hours incubation, n=3, AICAR at 500 μM (0.5% DMSO); for global increase of the pACC labelling: AICAR reference at 500 μM
Method: Evaluation of the effect of compound 4 on the AMPK pathway in NHEK cells (Normal Human Epidermal Keratinocytes) by analysis of the pACC (Acetyl-CoA Carboxylase) phosphorylated form expression. This effect is studied by fluorescent immunolabeling and image analysis.
Keratinocytes are seeded in 96-well microplates and grown for 24 hours in a culture medium. The medium is then replaced by the test medium and cells are grown for 24 supplementary hours. Finally, the medium is replaced by the test medium comprising or not (control) the tested compounds, the reference (AICAR) or the control solvent (0.1% or 0.5% DMSO) then the cells are incubated for 48 hours. All the test conditions were carried out with n=3.
After incubation, the immunolabeling is done. The results are expressed in labeling % of the pACC compared to the control brought back to 100%.

[3] = DHR123 probe, read-out: EC50 -DHR123
[4] = DCFH-DA probe, read-out: EC50- DCFH-DA

Question: Which results are given for COc1cc(/C=C/c2ccc(OC)c(OC)c2)ccc1O [Compound 4]?
Answer: pEC50 [1, 3]: 4.00; ROS production decrease [1]: Yes; activation of the AMPK route in normal human keratinocytes ([2]; 10 μM): capable to active the AMPK route; % control (labeling % of the pACC compared to the control brought back to 100%) [2]: 119%; global increase of the pACC labelling [2]: 19%

Question: How did the pEC50 [1, 4] turn out when COc1ccc(/C=C/c2ccc(O)c(OC)c2)cc1 [Compound 1] was run?
Answer: Its pEC50 is 4.70.

Question: And the pEC50 [1, 3]?
Answer: The pEC50 was 4.44.

Question: And the ROS production decrease [1]?
Answer: Its ROS production decrease is “Yes”.

Question: How did the pEC50 [1, 4] turn out when COc1cc(/C=C/c2ccc(OC(C)=O)c(OC)c2)ccc1O [Compound 5] was run?
Answer: Its pEC50 is 4.54.

Question: What about the ROS production decrease [1] of the same compound?
Answer: Its ROS production decrease is “Yes”.

Question: For NC(=O)c1ncn([C@@H]2O[C@H](CO)[C@@H](O)[C@H]2O)c1N [AICAR, reference compound], which “% control (labeling % of the pACC compared to the control brought back to 100%)” value [2] is on record?
Answer: Its value is 117%.

Question: And the “global increase of the pACC labelling” value [2]?
Answer: Its value is 17%.
